From patent publication US4818772A, “Derivatives of 4-aminoethoxy-5-isopropyl-2-methylbenzenes: methods of synthesis and utilization as medicines” (Societe Cortial S.A., priority 1981, dated 1989)
Structures can show the parent of a compound that is named as a salt. Where two headings read alike, the source gives them in different places.

How the values were obtained:
in vivo = conditions: mouse; for mortality: oral, Swiss mice, solvent varies by compound, read-out: Percentage mortality
Procedure: The toxicity of the compounds described in the present invention was determined by performing tests with Swiss mice. The animals, free of specific pathogenic organisms, are kept in an air-conditioned room for 24 to 48 hours before the beginning of the experiment. The animals are divided into groups consisting of 5 males and 5 females. The substances are administered with the appropriate carrier in a volume corresponding to 0.1 ml per 10 g of animal weight.
The following tables display the LD 50 determined for each compound, for oral and intraperitoneal administration, by utilizing the method described by J. C. Cazin (Bull. Soc. Pharm. Lille, 1972, 4, 187). In case the LD 50 could not be measured, the mortality percentages produced by various doses are reported.

[1] = system: hypertension induced by phenylephrine; assay: In vivo alpha-blocking activity: antagonism of hypertension induced by phenylephrine, intravenous, amyelic rats; conditions: for inhibition in vivo at 1.6 mg/kg / inhibition in vivo at 3.2 mg/kg / inhibition in vivo at 0.2 mg/kg: Rattus norvegicus, iv, read-out: % of maximum activity (percentage inhibition); for time for the residual activity to become 50% of the maximum activity: i.v.
Procedure: (§1) The in vivo alpha-blocking activity is estimated by the measurement of the antagonism of hypertension induced by phenylephrine. For intravenous administration, amyelic rats with both vagus nerves removed according to the technique of J. S. Gillespie and T. C. Muir (Br. J. Pharmac. Chemother., 1967, 30, 78-87) are used. The alpha-blocking agents are administered at doses of 0.2, 1.6 and 3.2 mg/kg.

[2] = system: aortic strips isolated from rabbits (contractions induced by noradrenaline); assay: In vitro alpha-blocking activity: antagonism of noradrenaline-induced contractions of aortic strips; type: cell-based; conditions: Oryctolagus cuniculus, read-out: CI 50 (50% inhibition of standard contraction induced by noradrenaline), noradrenaline 2×10^-6 M/l
Procedure: In vitro alpha-blocking activity is determined by the antagonism of contractions of aortic strips isolated from rabbits. The contractions are induced by noradrenaline at a concentration of 2×10^-6 M/l. The technique utilized is derived from that of Furchgott and Bhadrakom (J. Pharmacol., 1953, 108, 129-43). The agonist is introduced in the bath 30 seconds or 14 minutes after the addition of the antagonist.

[3] = system: hypertension induced by phenylephrine; assay: In vivo alpha-blocking activity: antagonism of hypertension induced by phenylephrine, oral, awake male rats; conditions: 5 mg/kg
Procedure: as §1
(§2) For oral administration, male rats kept awake and fitted with catheters implanted in the carotid artery and in the jugular vein are used. Compound COR 28 11 results in a maximum activity of 56.7±10.25% at a dose of 5 mg/kg. After 60 minutes, the activity is still 30%. The antihypertensive activity is determined on rats of Okamoto stock that are spontaneously hypertensive and anesthesized with pentobarbital. A dose of 0.1 mg/kg of compound COR 28 11 administered intravenously causes the average blood pressure to go from 135 to 106 mm of mercury.

[4] = system: rats of Okamoto stock that are spontaneously hypertensive; assay: Antihypertensive activity in spontaneously hypertensive rats; type: in vivo; conditions: i.v., 0.1 mg/kg; from 135 mm of mercury; anesthetized with pentobarbital
Procedure: as §2

unwashed human platelets = assay: Prevention of the aggregation of human platelets (plasma rich in platelets); type: cell-based; conditions: Platelet
Procedure: The studies were carried out with platelets in their natural surroundings (plasma rich in platelets). The inhibiting agent was tested in the presence of four types of aggregating agents (ADP, adrenalin, collagen, arachidonic acid) at various concentrations.
For each case, a dose-response curve was established.

[5] = agonist 30 seconds after antagonist (not flagged with *)
[6] = read-out: I 50 (50% inhibition of platelet aggregation), ADP 1.25μM/l
[7] = read-out: I 50 (50% inhibition of platelet aggregation), ADP 2.5μM/l
[8] = read-out: I 50 (50% inhibition of platelet aggregation), adrenalin 1μM/l
[9] = read-out: I 50 (50% inhibition of platelet aggregation), adrenalin 5μM/l
[10] = read-out: I 50 (50% inhibition of platelet aggregation), arachidonic acid 5·10^-4 M/l
[11] = read-out: I 50 (50% inhibition of platelet aggregation), arachidonic acid 10^-3 M/l
[12] = read-out: I 50 (50% inhibition of platelet aggregation), collagen 50μg/ml

Row | Compound | LD50 (in vivo; ip) | inhibition in vivo at 1.6 mg/kg ([1]; 1.6 mg/kg) | inhibition in vivo at 3.2 mg/kg ([1]; 3.2 mg/kg) | IC50 [2, 5] | LD50 (in vivo; po) | time for the residual activity to become 50% of the maximum activity ([1]; 1.6 mg/kg, given in m and s) | other results
1 | COc1cc(C(C)C)c(OCCN(C)CCOc2ccccc2)cc1C [COR 28 09, hydrochloride of N-methyl-N-phenoxyethyl-2-[(2-isopropyl-4-methoxy-5-methyl)phenoxy]ethylamine] | 200 mg/kg | 51.4 ± 5.1% | 74.7 ± 5.2% | 260 µM |  |  | mortality (in vivo; 1000 mg/kg): 0%
2 | COc1cc(C(C)C)c(OCCNCCOc2ccccc2)cc1C [COR 28 10, hydrochloride of N-phenoxyethyl-2-[(2-iso-propyl-4-methoxy-5-methyl)phenoxy]ethylamine] | 81 mg/kg | 66.3 ± 1.83% | 77% | 350 µM |  |  | mortality (in vivo; 1000 mg/kg): 20%
3 | COc1cc(C(C)C)c(OCCN(C)CCOc2c(OC)cccc2OC)cc1C [COR 28 11, hydrochloride of N-(2,6-dimethoxyphenoxyethyl)-N-methyl-2-[(2-isopropyl-4-methoxy-5-methyl)phenoxy]ethylamine] | 93 mg/kg | 61.8 ± 4.9% | 74.6 ± 4.4% |  | 546 mg/kg | > 60 min | time for the residual activity to become 50% of the maximum activity ([1]; 3.2 mg/kg, given in m and s): 60 min; maximum activity [3]: 56.7±10.25%; activity after 60 minutes ([3]; after 60 minutes): 30%; average blood pressure after administration [4]: 106 mm of mercury; IC50 ([2]; 14 min, contact time 14 min): 21.6 µM
4 | Cc1cc(OCCN(C)CC2COc3ccccc3O2)c(C(C)C)cc1O (centres unmarked) [COR 28 12, hydrochloride of N-[(4-hydroxy-2-isopropyl-5-methyl)phenoxyethyl]-N-methyl-[2-(1,4-benzodioxane)]methylamine] | 350 mg/kg | 59.1 ± 7.5% | 65.7 ± 4.5% | 90 µM | 1430 mg/kg |  | 
5 | CC(=O)Oc1cc(C(C)C)c(OCCN(C)CC2COc3ccccc3O2)cc1C (centres unmarked) [COR 28 13, hydrochloride of N-[(4-acetoxy-2-isopropyl-5-methyl)phenoxyethyl]-N-methyl-[2-(1,4-benzodioxane)]methylamine] | 600 mg/kg | 46.1 ± 6.01% | 61.1 ± 6.4% | 252 µM |  |  | mortality (in vivo; 1000 mg/kg): 0%; mortality (in vivo; 2000 mg/kg): 20%
6 | Cc1cc(OCCNCC2COc3ccccc3O2)c(C(C)C)cc1O (centres unmarked) [COR 28 14, hydrochloride of N-[(4-hydroxy-2-isopropyl-5-methyl)phenoxyethyl]-[2-(1,4-benzodioxane)]methylamine] | 174 mg/kg | 92 ± 2.45% | 100% | 6 µM | 952 mg/kg |  | time for the residual activity to become 50% of the maximum activity ([1]; 3.2 mg/kg, given in m and s): > 60 min
7 | Cc1cc(OCCNCCCc2ccccc2)c(C(C)C)cc1O [COR 28 21, hydrochloride of 5-isopropyl-2-methyl-4-[N-(3-phenylpropyl)aminoethoxy]phenol] | 84.6 mg/kg | 73.4 ± 6.99% |  | 11.7 µM | 359 mg/kg | 50 min | 
8 | COc1cccc(OC)c1OCCN(C)CCOc1cc(C)c(O)cc1C(C)C [COR 28 22, hydrochloride of 4-[N-(2,6-dimethoxyphenoxyethyl)-N-methylaminoethoxy]-5-isopropyl-2-methylphenol] | 66.2 mg/kg | 112 ± 7.3% |  | 0.178 µM | 316 mg/kg | 120 min | inhibition in vivo at 0.2 mg/kg ([1]; 0.2 mg/kg): 91.1 ± 3.46%; time for the residual activity to become 50% of the maximum activity ([1]; 0.2 mg/kg): 35 min
9 | Cc1cc(OCCN(C)CCCc2ccccc2)c(C(C)C)cc1O [COR 28 23, hydrochloride of 5-isopropyl-2-methyl-4-[N-methyl-N-(3-phenylpropyl)aminoethoxy]phenol] | 154 mg/kg | 81.1 ± 2.35% |  | 2.7 µM | 615 mg/kg | 20 min | 
10 | COc1cccc(OC)c1OCCNCCOc1cc(C)c(O)cc1C(C)C [COR 28 25, hydrochloride of 4-[N-(2,6-dimethoxyphenoxyethyl)aminoethoxy]-5-isopropyl-2-methylphenol] |  | 94.8 ± 2.22% |  |  |  | 120 min | inhibition in vivo at 0.2 mg/kg ([1]; 0.2 mg/kg): 70.2 ± 4.89%; time for the residual activity to become 50% of the maximum activity ([1]; 0.2 mg/kg): 20 min
11 | CC(=O)Oc1cc(C(C)C)c(OCCN(C)C)cc1C [Moxisylyte, reference compound] | 73 mg/kg | 83.1 ± 5.71% | 82.6 ± 4.54% | 17 µM | 225 mg/kg |  | 
12 | COc1cc(C(C)C)c(OCCN(C)CCOc2c(OC)cccc2OC)cc1C [drawing 28] |  |  |  |  |  |  | IC50 (unwashed human platelets; [6]): 70 µM; IC50 (unwashed human platelets; [7]): 74 µM; IC50 (unwashed human platelets; [8]): 16 µM; IC50 (unwashed human platelets; [9]): 40 µM; IC50 (unwashed human platelets; [10]): > 100 µM; IC50 (unwashed human platelets; [11]): > 100 µM; IC50 (unwashed human platelets; [12]): 100 µM
13 | Cc1cc(OCCNCC2COc3ccccc3O2)c(C(C)C)cc1O (centres unmarked) [drawing 29] |  |  |  |  |  |  | IC50 (unwashed human platelets; [6]): 60 µM; IC50 (unwashed human platelets; [7]): 58 µM; IC50 (unwashed human platelets; [8]): 24 µM; IC50 (unwashed human platelets; [9]): 50 µM; IC50 (unwashed human platelets; [10]): 15 µM; IC50 (unwashed human platelets; [11]): 54 µM; IC50 (unwashed human platelets; [12]): 52 µM
